Results published in patent publication EP3915546A1, “USE OF ACID AS SOLVENT FOR PRECIPITATIONS” (leon-nanodrugs GmbH, priority 2020, dated 2021).

Tests used:
Format in all cases: physicochemical
[1] = Thermodynamic saturation solubility in solvents and their mixtures with water (24 h stirring at room temperature, HPLC)
Protocol: Zur Bestimmung der thermodynamischen Sättigungslöslichkeit einer Substanz in einem bestimmten Lösungsmittel wird zunächst zur Orientierung eine Literaturrecherche durchgeführt, um einen ersten groben Richtwert zu erhalten. Danach wurden 500 mg (und gegebenenfalls mehr) des Wirkstoffpulvers eingewogen und in 5 ml des Lösungsmittels unter leichtem Rühren suspendiert. Falls das Pulver vollständig in Lösung ging, wurde zusätzlich 100 mg (oder iterative nochmalige Zugabe der initial eingewogenen Menge) Feststoff zugesetzt. Dies wurde wiederholt, bis sich ein Bodensatz bildete.
Die feststoff-enthaltende Mischung wurde verschlossen und 24 Stunden bei Raumtemperatur gerührt. Nach 24 Stunden wurde der Überstand von Bodensatz getrennt, zentrifugiert (Filtration ist nahezu unmöglich) und zur Quantifizierung mit der mobilen Phase der HPLC-Methode verdünnt.
Ein weiterer Teil des zentrifugierten Überstandes wurde unter Rühren mit demineralisiertem Wasser im Volumenverhältnis von 1:1 gemischt. Dazu wurde Wasser vorgelegt und die Wirkstofflösung unter Rühren oder Schütteln zu pipettiert. Dabei fiel Wirkstoff aus. Der Überstand wurde nach 3 Stunden von Bodensatz getrennt, zentrifugiert und zur Quantifizierung mittels HPLC verdünnt. Der Verdünnungsschritt wird grob abgeschätzt, Zielkonzentration sind z. B. 100 µg/mL je nach Wirkstoff, um im Linearitätsbereich des Detektors zu bleiben. Liegt die Konzentration zu hoch oder zu niedrig wird der Verdünnungsschritt angepasst. Die Verdünnung erfolgte mit einem zu mobilen Phase kompatiblen Lösungsmittelgemisch (z. B. Methanol vorlegen, Probe zugeben, Wasser zugeben). Falls die Substanz in diesem Lösungsmittelgemisch in dieser Verdünnung nicht löslich war, wurde die Verdünnung mit reinem organischem Lösungsmittel wiederholt.
Dieses Vorgehen wurde für die Mischungsverhältnisse von 1:2, 1:3 und 1:10 wiederholt.

[2] = Precipitation with water: total concentration in suspension and share dissolved in the mother liquor
Protocol: Für die pharmazeutische Weiterverarbeitung der Suspension zu einem Arzneimittel ist es wünschenswert, eine Wirkstoffkonzentration von mehr als 50 mg/ml zu erzeugen. Tabelle 4: Erzeugung von ENZ Partikeln durch Fällung. Gesamtkonzentration an ENZ in der Suspension (mg/ml) und der Anteil (%) des in der Mutterlauge gelösten ENZ
Wird eine Lösung von 100 mg/ml Enzalutamide in Aceton mit gleichem Teil an Wasser gemischt, so fällt ein Großteil des Enzalutamides aus, da dessen Sättigungskonzentration überschritten wird. Die resultierende Mischung enthält 50% Aceton und eine Gesamtmenge von 50 mg/ml Enzalutamide. Davon werden 7,87 mg/ml in der Mutterlauge gelöst vorliegen (Tabelle 3, Nr. 2, Aceton); dies entspricht 15,7 % der Gesamtmenge von 50 mg/ml (Tabelle 4, Nr. 2, Aceton). Diese gelöste Menge an Enzalutamide (15,7 % der Gesamtmenge) ist zu hoch und führt zu einem unerwünschten und schnellen Wachstum der Partikel.

[3] = Microscopy of the suspension after precipitation in a MikroJetReaktor (particle growth)
Protocol: • Figur 1: Mikroskopische Aufnahme von ENZ, entstanden durch Mischen von 1 Teil einer Lösung von 100 mg/ml ENZ in Aceton mit 1 Teil Wasser. Maßstab: Der Balken im Bild entspricht 20 µm. (a) Aufnahme unmittelbar nach Fällung. (b) Aufnahme ca. 12 Stunden nach der Fällung. • Figur 2: Mikroskopische Aufnahme von ENZ-Partikeln. Entstanden durch Mischen von 1 Teil einer Lösung von 100 mg/ml ENZ in Eisessig mit 10 Teilen Wasser. Maßstab: Der Balken im Bild entspricht 20 µm. (a) Aufnahme ca. 1 Stunde nach Fällung. (b) Aufnahme ca. 18 Stunden nach der Fällung.
100 mg Enzalutamide werden unter Rühren in 1 ml Aceton bei Raumtemperatur gelöst (100 mg/ml). Diese Lösung wird in einem MikroJetReaktor mit Wasser gemischt in einem Mischungsverhältnis von 1 Teil Enzalutamide in Aceton zu 1,01 Teilen Wasser. Die erhaltene Suspension wird mikroskopiert (Figur. 1).
100 mg Enzalutamide werden unter Rühren in 1 ml Eisessig bei Raumtemperatur gelöst (100 mg/ml). Diese Lösung wird in einem MikroJetReaktor mit Wasser gemischt in einem Mischungsverhältnis von 1 Teil Enzalutamide in Eisessig zu 10 Teilen Wasser. Die erhaltene Suspension wird mikroskopiert (Figur 3).

[4] = Aceton, Lösungsmittel-Gehalt der Mischung 100 %
[5] = Aceton/Wasser, Lösungsmittel-Gehalt der Mischung 25 %
[6] = Aceton/Wasser, Lösungsmittel-Gehalt der Mischung 33,3 %
[7] = Aceton/Wasser, Lösungsmittel-Gehalt der Mischung 50 %
[8] = Eisessig, Lösungsmittel-Gehalt der Mischung 100 %
[9] = Eisessig/Wasser, Lösungsmittel-Gehalt der Mischung 9,09 %
[10] = Eisessig/Wasser, Lösungsmittel-Gehalt der Mischung 25 %
[11] = Eisessig/Wasser, Lösungsmittel-Gehalt der Mischung 33,3 %
[12] = Eisessig/Wasser, Lösungsmittel-Gehalt der Mischung 50 %
[13] = THF, Lösungsmittel-Gehalt der Mischung 100 %
[14] = THF/Wasser, Lösungsmittel-Gehalt der Mischung 25 %
[15] = THF/Wasser, Lösungsmittel-Gehalt der Mischung 33,3 %
[16] = THF/Wasser, Lösungsmittel-Gehalt der Mischung 50 %
[17] = Aceton/Wasser, Lösungsmittel-Gehalt der Mischung 9,09 %
[18] = Ameisensäure/Wasser, Lösungsmittel-Gehalt der Mischung 9,09 %
[19] = Ethanol, Lösungsmittel-Gehalt der Mischung 100 %
[20] = Ethanol/Wasser, Lösungsmittel-Gehalt der Mischung 9,09 %
[21] = Ethanol/Wasser, Lösungsmittel-Gehalt der Mischung 25 %
[22] = Ethanol/Wasser, Lösungsmittel-Gehalt der Mischung 33,3 %
[23] = Ethanol/Wasser, Lösungsmittel-Gehalt der Mischung 50 %
[24] = THF/Wasser, Lösungsmittel-Gehalt der Mischung 9,09 %

CNC(=O)c1ccc(N2C(=S)N(c3ccc(C#N)c(C(F)(F)F)c3)C(=O)C2(C)C)cc1F [ENZ, Enzalutamid]
Sättigungslöslichkeit von ENZ [1, 4]: 358 mg/mL | Sättigungslöslichkeit von ENZ [1, 5]: 0,233 mg/ml | Sättigungslöslichkeit von ENZ [1, 6]: 0,537 mg/ml | Sättigungslöslichkeit von ENZ [1, 7]: 7,87 mg/ml | Sättigungslöslichkeit von ENZ [1, 8]: 155,4 mg/ml | Sättigungslöslichkeit von ENZ [1, 9]: 0,086 mg/ml | Sättigungslöslichkeit von ENZ [1, 10]: 0,112 mg/ml | Sättigungslöslichkeit von ENZ [1, 11]: 0,294 mg/ml | Sättigungslöslichkeit von ENZ [1, 12]: 2,044 mg/ml | Sättigungslöslichkeit von ENZ ([1]; Eisessig/Wasser, Lösungsmittel-Gehalt der Mischung 50 %, listed as Enzalutamide): 2,04 mg/ml | Sättigungslöslichkeit von ENZ [1, 13]: 364 mg/mL | Sättigungslöslichkeit von ENZ [1, 14]: 0,365 mg/ml | Sättigungslöslichkeit von ENZ [1, 15]: 2,68 mg/ml | Sättigungslöslichkeit von ENZ [1, 16]: 16,9 mg/ml | ENZ in Lösung bei Fällung aus (% der Gesamtmenge in Suspension) ([2]; Aceton, Lösungsmittel-Gehalt der Suspension 100 %, ENZ in Suspension 100 mg/ml): 100% | ENZ in Lösung bei Fällung aus (% der Gesamtmenge in Suspension) ([2]; Eisessig, Lösungsmittel-Gehalt der Suspension 100 %, ENZ in Suspension 100 mg/ml): 100% | ENZ in Lösung bei Fällung aus (% der Gesamtmenge in Suspension) ([2]; Fällung aus Aceton with Wasser, Lösungsmittel-Gehalt der Suspension 25 %, ENZ in Suspension 25 mg/ml): 0,93% | ENZ in Lösung bei Fällung aus (% der Gesamtmenge in Suspension) ([2]; Fällung aus Aceton with Wasser, Lösungsmittel-Gehalt der Suspension 33,3 %, ENZ in Suspension 33,3 mg/ml): 1,61% | ENZ in Lösung bei Fällung aus (% der Gesamtmenge in Suspension) ([2]; Fällung aus Aceton with Wasser, Lösungsmittel-Gehalt der Suspension 50 %, ENZ in Suspension 50 mg/ml): 15,7% | ENZ in Lösung bei Fällung aus (% der Gesamtmenge in Suspension) ([2]; Fällung aus Eisessig with Wasser, Lösungsmittel-Gehalt der Suspension 9,09 %, ENZ in Suspension 9,1 mg/ml): 0,95% | ENZ in Lösung bei Fällung aus (% der Gesamtmenge in Suspension) ([2]; Fällung aus Eisessig with Wasser, Lösungsmittel-Gehalt der Suspension 25 %, ENZ in Suspension 25 mg/ml): 0,45% | ENZ in Lösung bei Fällung aus (% der Gesamtmenge in Suspension) ([2]; Fällung aus Eisessig with Wasser, Lösungsmittel-Gehalt der Suspension 33,3 %, ENZ in Suspension 33,3 mg/ml): 0,88% | ENZ in Lösung bei Fällung aus (% der Gesamtmenge in Suspension) ([2]; Fällung aus Eisessig with Wasser, Lösungsmittel-Gehalt der Suspension 50 %, ENZ in Suspension 50 mg/ml): 4,09% | ENZ in Lösung bei Fällung aus (% der Gesamtmenge in Suspension) ([2]; Fällung aus THF with Wasser, Lösungsmittel-Gehalt der Suspension 25 %, ENZ in Suspension 25 mg/ml): 1,46% | ENZ in Lösung bei Fällung aus (% der Gesamtmenge in Suspension) ([2]; Fällung aus THF with Wasser, Lösungsmittel-Gehalt der Suspension 33,3 %, ENZ in Suspension 33,3 mg/ml): 8,04% | ENZ in Lösung bei Fällung aus (% der Gesamtmenge in Suspension) ([2]; Fällung aus THF with Wasser, Lösungsmittel-Gehalt der Suspension 50 %, ENZ in Suspension 50 mg/ml): 33,8% | ENZ in Lösung bei Fällung aus (% der Gesamtmenge in Suspension) ([2]; THF, Lösungsmittel-Gehalt der Suspension 100 %, ENZ in Suspension 100 mg/ml): 100% | Particles seen by microscopy after precipitation ([3]; 100 mg/ml in Aceton mixed with 1,01 Teilen Wasser in a MikroJetReaktor): Mikropartikel, die innerhalb von 12 Stunden zu großen Nadeln wachsen | Particles seen by microscopy after precipitation ([3]; 100 mg/ml in Eisessig mixed with 10 Teilen Wasser in a MikroJetReaktor): im Vergleich zu Aceton deutlich kleinere Partikel, die in Laufe von 18 Stunden zu Nadeln wachsen

CCC(C)n1ncn(-c2ccc(N3CCN(c4ccc(OCC5COC(Cn6cncn6)(c6ccc(Cl)cc6Cl)O5)cc4)CC3)cc2)c1=O (centres unmarked) [ITZ, Itraconazol]
Sättigungslöslichkeit von ITZ [1, 4]: 2,500 mg/ml | Sättigungslöslichkeit von ITZ relativ zu der Sättigungslöslichkeit im Lösungsmittel [1, 4]: 100% | Sättigungslöslichkeit von ITZ [1, 17]: 0,0001 mg/ml | Sättigungslöslichkeit von ITZ relativ zu der Sättigungslöslichkeit im Lösungsmittel [1, 17]: 0,004% | Sättigungslöslichkeit von ITZ [1, 5]: 0,002 mg/ml | Sättigungslöslichkeit von ITZ relativ zu der Sättigungslöslichkeit im Lösungsmittel [1, 5]: 0,09% | Sättigungslöslichkeit von ITZ [1, 6]: 0,008 mg/ml | Sättigungslöslichkeit von ITZ relativ zu der Sättigungslöslichkeit im Lösungsmittel [1, 6]: 0,34% | Sättigungslöslichkeit von ITZ [1, 7]: 0,038 mg/ml | Sättigungslöslichkeit von ITZ relativ zu der Sättigungslöslichkeit im Lösungsmittel [1, 7]: 1,53% | Sättigungslöslichkeit von ITZ ([1]; Ameisensäure, Lösungsmittel-Gehalt der Mischung 100 %): 435 mg/mL | Sättigungslöslichkeit von ITZ [1, 18]: 0,01 mg/ml | Sättigungslöslichkeit von ITZ relativ zu der Sättigungslöslichkeit im Lösungsmittel [1, 18]: 0,002% | Sättigungslöslichkeit von ITZ [1, 8]: 157,8 mg/ml | Sättigungslöslichkeit von ITZ relativ zu der Sättigungslöslichkeit im Lösungsmittel [1, 8]: 100% | Sättigungslöslichkeit von ITZ [1, 9]: 0,028 mg/ml | Sättigungslöslichkeit von ITZ relativ zu der Sättigungslöslichkeit im Lösungsmittel [1, 9]: 0,02% | Sättigungslöslichkeit von ITZ [1, 10]: 0,009 mg/ml | Sättigungslöslichkeit von ITZ relativ zu der Sättigungslöslichkeit im Lösungsmittel [1, 10]: 0,01% | Sättigungslöslichkeit von ITZ [1, 11]: 0,210 mg/ml | Sättigungslöslichkeit von ITZ relativ zu der Sättigungslöslichkeit im Lösungsmittel [1, 11]: 0,13% | Sättigungslöslichkeit von ITZ [1, 12]: 1,455 mg/ml | Sättigungslöslichkeit von ITZ relativ zu der Sättigungslöslichkeit im Lösungsmittel [1, 12]: 0,92% | Sättigungslöslichkeit von ITZ [1, 19]: 0,289 mg/ml | Sättigungslöslichkeit von ITZ relativ zu der Sättigungslöslichkeit im Lösungsmittel [1, 19]: 100% | Sättigungslöslichkeit von ITZ [1, 20]: 0,009 mg/ml | Sättigungslöslichkeit von ITZ relativ zu der Sättigungslöslichkeit im Lösungsmittel [1, 20]: 2,95% | Sättigungslöslichkeit von ITZ [1, 21]: 0,006 mg/ml | Sättigungslöslichkeit von ITZ relativ zu der Sättigungslöslichkeit im Lösungsmittel [1, 21]: 2,08% | Sättigungslöslichkeit von ITZ [1, 22]: 0,002 mg/ml | Sättigungslöslichkeit von ITZ relativ zu der Sättigungslöslichkeit im Lösungsmittel [1, 22]: 0,69% | Sättigungslöslichkeit von ITZ [1, 23]: 0,102 mg/ml | Sättigungslöslichkeit von ITZ relativ zu der Sättigungslöslichkeit im Lösungsmittel [1, 23]: 34,36% | Sättigungslöslichkeit von ITZ [1, 13]: 4,255 mg/ml | Sättigungslöslichkeit von ITZ relativ zu der Sättigungslöslichkeit im Lösungsmittel [1, 13]: 100% | Sättigungslöslichkeit von ITZ [1, 24]: 0,001 mg/ml | Sättigungslöslichkeit von ITZ relativ zu der Sättigungslöslichkeit im Lösungsmittel [1, 24]: 0,02% | Sättigungslöslichkeit von ITZ [1, 14]: 0,002 mg/ml | Sättigungslöslichkeit von ITZ relativ zu der Sättigungslöslichkeit im Lösungsmittel [1, 14]: 0,05% | Sättigungslöslichkeit von ITZ [1, 15]: 0,013 mg/ml | Sättigungslöslichkeit von ITZ relativ zu der Sättigungslöslichkeit im Lösungsmittel [1, 15]: 0,29% | Sättigungslöslichkeit von ITZ [1, 16]: 0,677 mg/ml | Sättigungslöslichkeit von ITZ relativ zu der Sättigungslöslichkeit im Lösungsmittel [1, 16]: 15,91% | Sättigungslöslichkeit von ITZ ([1]; in Tetrahydrofuran, Aceton und Ethanol): < 5 mg/mL | Sättigungslöslichkeit von ITZ ([1]; in den Lösungsmitteln Ameisensäure und Eisessig): > 150 mg/mL
